Results reported in patent US20030207813A1, “Retroviral protease inhibitor combinations” (priority 1995, published 2003).
Like-named read-outs stand apart in the source and are kept apart here.

Assays:
NL4(G48V) = assay: Viral isolate resistance assay per Markowitz et al., NL4(G48V); format: cell-based, HIV-1; details: Human immunodeficiency virus 1, Table 7
Excerpt: (§1) RF represents the HIV-1 strain HIV-LRF and RFR represents a mixture of resistant strains obtained by selection of RF against the compound of Example 1. […] RFR2 represents a mixture of resistant strains obtained by cloning RFR by three rounds of growth at limiting dilution. […] RFRR represents a mixture of resistant strains obtained by selection of RF against the compounds of Examples 1 and 2 and then cloning by three rounds of growth at limiting dilution. […] SF162 represents the HIV-1 strain SF-162 and SF162R represents a mixture of resistant strains obtained by selection of SF162 against the compound of Example 1. […] 89-959 represents the HIV-1 strain 89-959 and 89-959R represents a mixture of resistant strains obtained by selection of 89-959 against the compound of Example 2. […] NL4 represents the HIV-1 strain HIV-1NL4-3. NL4(G48V) represents a strain having a synthetically generated site-directed mutation in the protease from glycine to valine at amino acid position number 48. NL4(I84V) represents a strain having a synthetically generated site-directed mutation in the protease from isoleucine to valine at amino acid position number 84. NL4(R8Q,M46I) represents a strain having synthetically generated site-directed mutations in the protease from arginine to glutamine at amino acid position number 8 and methionine to isoleucine at amino acid position number 46.

NL4(P37-538) = assay: Viral isolate resistance assay per Markowitz et al., NL4(P37-538); format: cell-based, HIV-1; details: Human immunodeficiency virus 1; Table 9; selected against Example 10, 37 passages; read-out: Virus Isolate (EC50 nM) NL4(P37-538)
Excerpt: (§2) RF represents the HIV-1 strain HIV-LRF and RFR represents a mixture of resistant strains obtained by selection of RF against the compound of Example 1. RFR comprises a mixture of viral strains having protease genotypes of G48V (14/40 clones); G48V, V82A (18/40 clones); G48V, L90S (2/40 clones); G48V, 154T, V82A (1/40 clones); G48M (1/40 clones); G48V, Q61H (1/40 clones); V13I, G48V (1/40 clones); G48V, F53L, V82A (1/40 clones); and G48V, V82A, C95Y (1/40 clones). RFR2 represents a mixture of resistant strains obtained by cloning RFR by three rounds of growth at limiting dilution. RFR2 comprises a mixture of viral strains having protease genotypes of G48V, V82A (13/15 clones); G17E, G48V, V82A (1/15 clones); and G48V, V82A, N37D, N88D (1/15 clones). RFRR represents a mixture of resistant strains obtained by selection of RF against the compounds of Examples 1 and 2 and then cloning by three rounds of growth at limiting dilution. RFRR comprises a mixture of viral strains having protease genotypes of G48V, 154T, L63P, V82A (7/9 clones); G48V, 154T, L63P, V82A, N88S (1/9 clones); and G48V, 154T, L63P, G73M, V82A (1/9 clones). SF162 represents the HIV-1 strain SF-162 and SF162R represents a mixture of resistant strains obtained by selection of SF162 against the compound of Example 1. SF162R comprises a mixture of viral strains having protease genotypes of M461, F53L, L63P, A71V, N88D (2/3 clones); and M46I, F53L, L63P, A71V, N88D, Q92R (1/3 clones). 89-959 represents the HIV-1 strain 89-959 and 89-959R represents a mixture of resistant strains obtained by selection of 89-959 against the compound of Example 2. 89-959R comprises a mixture of viral strains having protease genotypes of N88S (4/5 clones); and D25N, T26A, D30N, D37N, R41K, G73D, R87K, N88S (1/4 clones). NL4 represents the HIV-1 strain HIV-1NL4-3. NL4(G48V) represents a strain having a synthetically generated site-directed mutation in the protease from glycine to valine at amino acid position number 48. NL4(I84V) represents a strain having a synthetically generated site-directed mutation in the protease from isoleucine to valine at amino acid position number 84. NL4(R8Q,M46I) represents a strain having synthetically generated site-directed mutations in the protease from arginine to glutamine at amino acid position number 8 and methionine to isoleucine at amino acid position number 46. NL4(P22-538) represents a mixture of resistant strains obtained by selection of HIV-1NL4-3 against the compound of Example 10 after 22 passages comprising protease genotypes M46I, L63P, A71V, V82F, I84V (4/10); M46I, L63P, V82F, I84V (3/10); and M46I, A71V, V82F, I84V (3/10). NL4(P37-538) represents resistant strains obtained by selection of HIV-1NL4-3 against the compound of Example 10 after 37 passages comprising protease genotype M46I, L63P, A71V, 184A. NL4(538/524) represents resistant strains obtained by selection of NL4(P22-538) against the compound of Example 5 after 24 passages comprising protease genotype M46I, L63P, A71V, 184A. NL4(538/P7-AG) represents a mixture of resistant strains obtained by selection of NL4(P22-538) against the compound of Example 12 after 7 passages comprising protease genotypes M46I, L63P, A71V, 184A; and V321, V82I. NL4(538/P24-AG) represents resistant strains obtained by selection of NL4(P22-538) against the compound of Example 12 after 24 passages comprising protease genotype M46I, L63P, A71V, 184A. NLA(P19-003) represents resistant strains obtained by selection of HIV-1^NL4-3 against the compound of Example 9 after 19 passages comprising protease genotype R8K, M46I. NL4(P34-003) represents resistant strains obtained by selection of HIV-1^NL4-3 against the compound of Example 9 after 34 passages comprising protease genotype R8K, M46I, L63P, A71V, L90M.
The viral isolate resistance results summarized in Tables 7-11 were generated according to the assay procedures described by Markowitz et al., Journal of Virology, vol. […]

NL4(538/524) = assay: Viral isolate resistance assay per Markowitz et al., NL4(538/524); format: cell-based, HIV-1; details: Human immunodeficiency virus 1; Table 10; NL4(P22-538) selected against Example 5, 24 passages
Excerpt: as §2, with “NLA(P19-003) represents resistant strains obtained by selection of HIV-1^NL4-3 against the compound of Example 9 after 19 passages comprising protease genotype R8K, M46I. NL4(P34-003) represents resistant strains obtained by selection of HIV-1^NL4-3 against the compound of Example 9 after 34 passages comprising protease genotype R8K, M46I, L63P, A71V, L90M.” left out

HIV-1NL4-3 = assay: microbe, parasite or virus in culture; format: cell-based; details: for EC50: Table 8, read-out: Virus Isolate (EC50 nM) NL4
Excerpt: as §1

NL4(P34-003) = assay: Viral isolate resistance assay per Markowitz et al., NL4(P34-003); format: cell-based, HIV-1; details: Human immunodeficiency virus 1; Table 11; selected against Example 9, 34 passages
Excerpt: (§3) RF represents the HIV-1 strain HIV-LRF and RFR represents a mixture of resistant strains obtained by selection of RF against the compound of Example 1. RFR comprises a mixture of viral strains having protease genotypes of G48V (14/40 clones); G48V, V82A (18/40 clones); G48V, L90S (2/40 clones); G48V, 154T, V82A (1/40 clones); G48M (1/40 clones); G48V, Q61H (1/40 clones); V13I, G48V (1/40 clones); G48V, F53L, V82A (1/40 clones); and G48V, V82A, C95Y (1/40 clones). RFR2 represents a mixture of resistant strains obtained by cloning RFR by three rounds of growth at limiting dilution. RFR2 comprises a mixture of viral strains having protease genotypes of G48V, V82A (13/15 clones); G17E, G48V, V82A (1/15 clones); and G48V, V82A, N37D, N88D (1/15 clones). RFRR represents a mixture of resistant strains obtained by selection of RF against the compounds of Examples 1 and 2 and then cloning by three rounds of growth at limiting dilution. RFRR comprises a mixture of viral strains having protease genotypes of G48V, 154T, L63P, V82A (7/9 clones); G48V, 154T, L63P, V82A, N88S (1/9 clones); and G48V, 154T, L63P, G73M, V82A (1/9 clones). SF162 represents the HIV-1 strain SF-162 and SF162R represents a mixture of resistant strains obtained by selection of SF162 against the compound of Example 1. SF162R comprises a mixture of viral strains having protease genotypes of M461, F53L, L63P, A71V, N88D (2/3 clones); and M46I, F53L, L63P, A71V, N88D, Q92R (1/3 clones). 89-959 represents the HIV-1 strain 89-959 and 89-959R represents a mixture of resistant strains obtained by selection of 89-959 against the compound of Example 2. 89-959R comprises a mixture of viral strains having protease genotypes of N88S (4/5 clones); and D25N, T26A, D30N, D37N, R41K, G73D, R87K, N88S (1/4 clones). NL4 represents the HIV-1 strain HIV-1NL4-3. NL4(G48V) represents a strain having a synthetically generated site-directed mutation in the protease from glycine to valine at amino acid position number 48. […]

NLA(P19-003) = assay: Viral isolate resistance assay per Markowitz et al., NLA(P19-003); format: cell-based, HIV-1; details: Human immunodeficiency virus 1, read-out: Virus Isolate (EC50 nM) NLA(P19-003)
Excerpt: as §3

[1] = Human immunodeficiency virus 1, NL4

Row | SMILES | EC90 (NL4(G48V)) [nM] | EC50 (NL4(P37-538)) [nM] | EC50 (NL4(538/524)) [nM] | EC90 (HIV-1NL4-3; Human immunodeficiency virus 1, Table 7, EC90, NL4, read-out: Virus Isolate (EC90 nM) NL4) [nM] | EC50 (HIV-1NL4-3; [1]) [nM] | EC50 (NL4(P34-003)) [nM] | EC50 (NLA(P19-003)) [nM] | EC90 (HIV-1NL4-3; Human immunodeficiency virus 1, read-out: Virus Isolate (EC90 nM) NL4) [nM]
1 | CC(C)(C)NC(=O)[C@@H]1CC2CCCC[C@@H]2CN1C[C@@H](O)[C@H](Cc1ccccc1)NC(=O)[C@H](CC(N)=O)NC(=O)c1ccc2ccccc2n1 (stereo in doubt) [Example 6, N-tert-Butyl decahydro-2-[2(R)-hydroxy-4-phenyl-3(S)-[[N-(2-quinolylcarbonyl)-L-asparaginyl]amino]butyl]-(4aR,8aS)-isoquinoline-3(S)-carboxamide] | 150 | 2400 | 2400 | 30 | 30 | – | – | –
2 | CC(C)(C)NC(=O)[C@@H]1CN(Cc2cccnc2)CCN1C[C@@H](O)C[C@@H](Cc1ccccc1)C(=O)N[C@H]1c2ccccc2C[C@H]1O [Example 5, N-(2(R)-Hydroxy-1(S)-indanyl)-2(R)-phenylmethyl-4(S)-hydroxy-5-(1-(4-(3-pyridylmethyl)-2(S)-N′-(t-butylcarboxamido)-piperazinyl))-pentaneamide] | 160 | 6400 | 6400 | – | 80 | 400 | 240 | 80
